{
  "source": "paper PMC10528299",
  "about": "“Targeting FAK/PYK2 with SJP1602 for Anti-Tumor Activity in Triple-Negative Breast Cancer” (Current Issues in Molecular Biology, 2023)",
  "experiment_in_all_cases": "Eurofins kinase profiling",
  "assay_type_in_all_cases": "biochemical",
  "key": {"DCAMKL3(h)": {"target": "T1, DCAMKL3(h) (Homo sapiens, UniProt Q9C098)", "T1 construct": "purchased Eurofins KinaseProfiler", "T1 sequence (Q9C098 1-648)": "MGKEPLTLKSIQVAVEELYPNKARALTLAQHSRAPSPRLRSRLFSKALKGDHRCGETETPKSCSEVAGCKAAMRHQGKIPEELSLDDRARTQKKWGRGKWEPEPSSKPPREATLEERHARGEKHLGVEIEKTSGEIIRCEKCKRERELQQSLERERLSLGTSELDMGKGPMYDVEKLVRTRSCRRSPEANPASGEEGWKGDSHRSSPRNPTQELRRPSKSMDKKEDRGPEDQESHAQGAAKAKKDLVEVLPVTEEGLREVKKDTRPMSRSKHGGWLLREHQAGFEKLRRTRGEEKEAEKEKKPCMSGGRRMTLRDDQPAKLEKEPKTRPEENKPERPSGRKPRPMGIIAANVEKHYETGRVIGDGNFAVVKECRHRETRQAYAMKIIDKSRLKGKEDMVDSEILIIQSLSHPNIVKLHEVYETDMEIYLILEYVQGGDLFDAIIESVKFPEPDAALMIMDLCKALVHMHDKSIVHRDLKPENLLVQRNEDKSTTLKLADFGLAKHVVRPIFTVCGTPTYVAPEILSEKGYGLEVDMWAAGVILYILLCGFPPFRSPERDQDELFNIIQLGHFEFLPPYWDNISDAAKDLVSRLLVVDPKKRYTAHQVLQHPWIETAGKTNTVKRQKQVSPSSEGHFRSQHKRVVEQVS", "conditions": "read-out: residual kinase activity DCAMKL3(h)", "method_in_brief": "(§1)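 Radiometric detection, with radiolabeled phosphate as substrate, gave the kinase activity after each enzyme was incubated with 1 µM test compound. The run belonged to a 110-assay profiling panel.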"}, "Mer(h)": {"target": "T2, Mer(h) (Homo sapiens, UniProt Q12866)", "T2 construct": "purchased Eurofins KinaseProfiler", "T2 sequence (Q12866 21-999)": "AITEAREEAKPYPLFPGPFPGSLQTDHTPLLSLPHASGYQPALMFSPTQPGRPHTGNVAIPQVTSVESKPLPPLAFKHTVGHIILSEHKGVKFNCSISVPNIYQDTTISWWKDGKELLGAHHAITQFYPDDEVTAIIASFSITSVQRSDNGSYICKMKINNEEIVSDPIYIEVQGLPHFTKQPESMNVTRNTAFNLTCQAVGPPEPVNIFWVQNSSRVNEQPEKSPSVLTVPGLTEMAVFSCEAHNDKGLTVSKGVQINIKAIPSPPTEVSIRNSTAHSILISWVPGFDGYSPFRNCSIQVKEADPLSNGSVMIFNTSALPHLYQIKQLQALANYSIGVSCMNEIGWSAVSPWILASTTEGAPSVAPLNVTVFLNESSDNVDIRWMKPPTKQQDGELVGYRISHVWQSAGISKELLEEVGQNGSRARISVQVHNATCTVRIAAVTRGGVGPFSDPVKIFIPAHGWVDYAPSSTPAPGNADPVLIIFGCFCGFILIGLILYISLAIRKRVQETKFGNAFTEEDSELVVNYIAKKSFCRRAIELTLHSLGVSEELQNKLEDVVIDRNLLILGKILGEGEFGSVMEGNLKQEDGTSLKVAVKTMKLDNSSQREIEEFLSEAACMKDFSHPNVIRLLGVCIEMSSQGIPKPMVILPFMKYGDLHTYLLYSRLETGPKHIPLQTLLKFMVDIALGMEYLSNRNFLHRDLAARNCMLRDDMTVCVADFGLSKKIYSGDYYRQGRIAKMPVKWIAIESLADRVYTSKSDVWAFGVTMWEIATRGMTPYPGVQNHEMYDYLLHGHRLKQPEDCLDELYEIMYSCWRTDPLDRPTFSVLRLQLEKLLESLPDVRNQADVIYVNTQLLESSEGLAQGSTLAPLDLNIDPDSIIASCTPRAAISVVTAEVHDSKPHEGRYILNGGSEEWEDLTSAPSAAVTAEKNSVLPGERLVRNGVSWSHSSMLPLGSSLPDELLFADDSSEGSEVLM", "conditions": "read-out: residual kinase activity Mer(h)", "method_in_brief": "as §1"}, "PI3 Kinase (p120g)(h)": {"target": "T3, PI3 Kinase (p120g)(h) (Homo sapiens, UniProt P48736)", "T3 construct": "purchased Eurofins KinaseProfiler", "conditions": "read-out: residual kinase activity PI3 Kinase (p120g)(h)", "method_in_brief": "as §1"}, "BRK(h)": {"target": "T4, BRK(h) (Homo sapiens, UniProt Q13882)", "T4 construct": "purchased Eurofins KinaseProfiler", "conditions": "read-out: residual kinase activity BRK(h)", "method_in_brief": "as §1"}, "EGFR(T790M,L858R)(h)": {"target": "T5, EGFR(T790M,L858R)(h) (Homo sapiens, UniProt P00533, L858R/T790M)", "T5 construct": "purchased Eurofins KinaseProfiler", "T5 sequence (P00533 25-1210 T790M/L858R)": "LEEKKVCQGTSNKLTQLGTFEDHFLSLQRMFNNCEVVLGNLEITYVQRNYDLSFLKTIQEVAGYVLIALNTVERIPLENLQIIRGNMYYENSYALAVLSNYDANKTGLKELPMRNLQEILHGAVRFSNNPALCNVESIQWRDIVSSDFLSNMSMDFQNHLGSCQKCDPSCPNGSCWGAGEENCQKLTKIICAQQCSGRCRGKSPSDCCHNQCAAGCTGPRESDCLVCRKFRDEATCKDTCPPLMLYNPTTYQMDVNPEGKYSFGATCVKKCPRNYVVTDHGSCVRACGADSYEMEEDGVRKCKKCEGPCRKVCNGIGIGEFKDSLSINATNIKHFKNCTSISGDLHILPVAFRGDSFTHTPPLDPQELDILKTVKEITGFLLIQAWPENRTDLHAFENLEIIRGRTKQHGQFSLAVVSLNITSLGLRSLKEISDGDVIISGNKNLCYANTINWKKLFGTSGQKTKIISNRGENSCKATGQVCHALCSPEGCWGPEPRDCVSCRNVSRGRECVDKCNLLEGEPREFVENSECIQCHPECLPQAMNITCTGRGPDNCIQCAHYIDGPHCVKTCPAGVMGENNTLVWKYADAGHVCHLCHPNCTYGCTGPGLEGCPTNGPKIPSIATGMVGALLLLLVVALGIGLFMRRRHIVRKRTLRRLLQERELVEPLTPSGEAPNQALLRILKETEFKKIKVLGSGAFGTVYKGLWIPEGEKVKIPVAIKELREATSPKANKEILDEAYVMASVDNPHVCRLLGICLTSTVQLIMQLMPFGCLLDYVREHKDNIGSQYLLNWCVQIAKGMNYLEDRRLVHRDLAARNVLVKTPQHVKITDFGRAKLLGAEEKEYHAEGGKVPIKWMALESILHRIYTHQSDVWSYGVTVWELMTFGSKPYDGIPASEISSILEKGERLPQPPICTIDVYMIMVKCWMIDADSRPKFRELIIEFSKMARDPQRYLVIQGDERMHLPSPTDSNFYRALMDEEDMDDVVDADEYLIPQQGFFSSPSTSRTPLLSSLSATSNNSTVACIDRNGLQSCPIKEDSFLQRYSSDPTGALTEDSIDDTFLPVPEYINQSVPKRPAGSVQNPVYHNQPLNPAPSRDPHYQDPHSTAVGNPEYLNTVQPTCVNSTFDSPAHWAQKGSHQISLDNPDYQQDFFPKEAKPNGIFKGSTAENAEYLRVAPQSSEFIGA", "conditions": "read-out: residual kinase activity EGFR(T790M,L858R)(h)", "method_in_brief": "as §1"}, "CDK5/p35(h)": {"target": "T6, CDK5/p35(h) (Homo sapiens, UniProt Q00535)", "T6 construct": "purchased Eurofins KinaseProfiler", "T6 sequence (Q00535 whole entry)": "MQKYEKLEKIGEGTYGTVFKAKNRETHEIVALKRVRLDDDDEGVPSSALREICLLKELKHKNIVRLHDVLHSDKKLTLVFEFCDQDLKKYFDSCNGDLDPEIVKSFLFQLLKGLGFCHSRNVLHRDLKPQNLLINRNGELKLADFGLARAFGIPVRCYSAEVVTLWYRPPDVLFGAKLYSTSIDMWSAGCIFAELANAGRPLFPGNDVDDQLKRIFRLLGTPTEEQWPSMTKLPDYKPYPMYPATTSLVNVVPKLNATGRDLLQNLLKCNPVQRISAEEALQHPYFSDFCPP", "T6 sequence (Q15078 whole entry partner)": "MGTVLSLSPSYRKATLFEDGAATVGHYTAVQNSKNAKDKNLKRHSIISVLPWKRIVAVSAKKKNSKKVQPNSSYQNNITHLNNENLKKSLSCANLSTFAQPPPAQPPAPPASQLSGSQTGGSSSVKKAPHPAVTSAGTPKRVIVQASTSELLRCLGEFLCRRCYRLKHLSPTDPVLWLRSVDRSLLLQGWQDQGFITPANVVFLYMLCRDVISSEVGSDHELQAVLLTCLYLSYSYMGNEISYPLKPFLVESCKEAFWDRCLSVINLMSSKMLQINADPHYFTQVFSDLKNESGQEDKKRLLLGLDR", "conditions": "read-out: residual kinase activity CDK5/p35(h)", "method_in_brief": "as §1"}, "ATM(h)": {"target": "T7, ATM(h) (Homo sapiens, UniProt Q13315)", "T7 construct": "purchased Eurofins KinaseProfiler", "T7 sequence (Q13315 whole entry)": "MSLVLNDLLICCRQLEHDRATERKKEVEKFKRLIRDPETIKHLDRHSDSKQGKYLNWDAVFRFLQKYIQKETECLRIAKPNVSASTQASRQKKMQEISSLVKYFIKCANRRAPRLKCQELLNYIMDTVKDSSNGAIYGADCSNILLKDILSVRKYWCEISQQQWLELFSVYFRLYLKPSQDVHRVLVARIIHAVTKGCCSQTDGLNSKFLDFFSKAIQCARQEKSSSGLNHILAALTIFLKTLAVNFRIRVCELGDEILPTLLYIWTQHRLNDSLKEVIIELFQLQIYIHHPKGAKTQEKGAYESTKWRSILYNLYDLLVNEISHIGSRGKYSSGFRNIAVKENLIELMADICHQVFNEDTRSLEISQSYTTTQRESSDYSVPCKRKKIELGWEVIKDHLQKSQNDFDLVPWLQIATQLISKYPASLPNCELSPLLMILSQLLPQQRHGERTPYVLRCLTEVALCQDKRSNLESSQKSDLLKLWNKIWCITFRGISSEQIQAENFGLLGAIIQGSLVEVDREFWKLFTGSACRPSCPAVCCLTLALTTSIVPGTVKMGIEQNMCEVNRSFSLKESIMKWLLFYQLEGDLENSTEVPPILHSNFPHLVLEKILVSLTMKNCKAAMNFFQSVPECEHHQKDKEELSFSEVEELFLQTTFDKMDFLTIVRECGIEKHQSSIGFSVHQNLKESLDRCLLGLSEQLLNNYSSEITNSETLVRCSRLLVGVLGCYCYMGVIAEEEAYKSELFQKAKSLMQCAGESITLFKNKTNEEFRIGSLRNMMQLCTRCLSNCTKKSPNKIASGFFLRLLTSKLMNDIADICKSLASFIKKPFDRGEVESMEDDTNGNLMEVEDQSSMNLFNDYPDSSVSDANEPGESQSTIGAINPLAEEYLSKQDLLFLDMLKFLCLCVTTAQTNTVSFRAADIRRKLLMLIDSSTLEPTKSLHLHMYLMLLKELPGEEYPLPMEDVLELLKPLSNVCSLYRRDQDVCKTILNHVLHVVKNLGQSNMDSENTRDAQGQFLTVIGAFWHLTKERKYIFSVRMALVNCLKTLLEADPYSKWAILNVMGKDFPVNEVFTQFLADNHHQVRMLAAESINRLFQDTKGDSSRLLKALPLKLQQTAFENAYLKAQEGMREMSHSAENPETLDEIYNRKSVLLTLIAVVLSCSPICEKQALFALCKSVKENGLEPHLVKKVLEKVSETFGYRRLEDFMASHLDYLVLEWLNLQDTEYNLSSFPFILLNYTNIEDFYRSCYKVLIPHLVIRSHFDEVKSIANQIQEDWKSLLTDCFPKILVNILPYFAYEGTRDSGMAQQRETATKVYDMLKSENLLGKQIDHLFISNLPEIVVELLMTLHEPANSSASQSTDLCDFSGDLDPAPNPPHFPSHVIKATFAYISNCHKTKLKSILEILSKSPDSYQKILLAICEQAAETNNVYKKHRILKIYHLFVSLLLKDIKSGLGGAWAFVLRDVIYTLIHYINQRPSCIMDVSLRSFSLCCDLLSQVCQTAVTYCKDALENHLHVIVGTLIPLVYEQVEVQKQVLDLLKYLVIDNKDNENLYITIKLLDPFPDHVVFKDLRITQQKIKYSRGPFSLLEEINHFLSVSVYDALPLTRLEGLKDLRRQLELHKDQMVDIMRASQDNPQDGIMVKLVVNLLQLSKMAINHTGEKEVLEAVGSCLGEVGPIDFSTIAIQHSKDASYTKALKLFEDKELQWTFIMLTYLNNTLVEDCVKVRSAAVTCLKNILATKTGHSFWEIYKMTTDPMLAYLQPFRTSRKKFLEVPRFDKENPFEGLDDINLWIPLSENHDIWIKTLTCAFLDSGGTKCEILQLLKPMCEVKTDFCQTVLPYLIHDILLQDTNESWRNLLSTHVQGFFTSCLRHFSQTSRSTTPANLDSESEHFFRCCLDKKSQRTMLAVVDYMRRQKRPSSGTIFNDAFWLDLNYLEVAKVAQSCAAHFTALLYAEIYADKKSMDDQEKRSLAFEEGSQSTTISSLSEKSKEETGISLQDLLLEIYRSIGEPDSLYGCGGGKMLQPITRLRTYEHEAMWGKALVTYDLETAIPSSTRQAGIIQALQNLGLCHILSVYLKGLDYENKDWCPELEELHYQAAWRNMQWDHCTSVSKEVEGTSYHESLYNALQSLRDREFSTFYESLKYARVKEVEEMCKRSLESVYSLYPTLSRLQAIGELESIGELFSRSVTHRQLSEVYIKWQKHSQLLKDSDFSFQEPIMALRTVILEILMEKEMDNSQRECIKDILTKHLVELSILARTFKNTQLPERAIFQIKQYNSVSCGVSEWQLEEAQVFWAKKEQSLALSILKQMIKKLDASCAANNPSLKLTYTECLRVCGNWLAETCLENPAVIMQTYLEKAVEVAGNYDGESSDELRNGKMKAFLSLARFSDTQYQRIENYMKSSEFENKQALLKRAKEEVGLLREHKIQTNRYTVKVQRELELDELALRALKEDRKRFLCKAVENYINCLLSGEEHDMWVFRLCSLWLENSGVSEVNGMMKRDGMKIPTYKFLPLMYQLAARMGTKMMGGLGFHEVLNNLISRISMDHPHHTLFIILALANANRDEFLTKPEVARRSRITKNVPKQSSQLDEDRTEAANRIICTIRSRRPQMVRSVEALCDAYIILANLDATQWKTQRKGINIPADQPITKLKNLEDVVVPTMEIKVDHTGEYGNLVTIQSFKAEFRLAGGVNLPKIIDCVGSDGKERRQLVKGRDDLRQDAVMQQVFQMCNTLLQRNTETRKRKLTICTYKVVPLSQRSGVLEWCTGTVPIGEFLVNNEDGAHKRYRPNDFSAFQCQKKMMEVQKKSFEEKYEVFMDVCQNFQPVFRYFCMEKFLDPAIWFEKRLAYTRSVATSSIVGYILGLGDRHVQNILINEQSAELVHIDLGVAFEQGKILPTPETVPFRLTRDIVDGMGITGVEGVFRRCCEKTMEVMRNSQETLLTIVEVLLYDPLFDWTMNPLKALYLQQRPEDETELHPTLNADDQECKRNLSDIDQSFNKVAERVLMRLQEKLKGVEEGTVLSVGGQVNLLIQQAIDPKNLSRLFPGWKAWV", "conditions": "read-out: residual kinase activity ATM(h)", "method_in_brief": "as §1"}, "B-Raf(h)": {"target": "T8, B-Raf(h) (Homo sapiens, UniProt P15056)", "T8 construct": "purchased Eurofins KinaseProfiler", "conditions": "read-out: residual kinase activity B-Raf(h)", "method_in_brief": "as §1"}, "CHK1(h)": {"target": "T9, CHK1(h) (Homo sapiens, UniProt O14757)", "T9 construct": "purchased Eurofins KinaseProfiler", "T9 sequence (O14757 1-476)": "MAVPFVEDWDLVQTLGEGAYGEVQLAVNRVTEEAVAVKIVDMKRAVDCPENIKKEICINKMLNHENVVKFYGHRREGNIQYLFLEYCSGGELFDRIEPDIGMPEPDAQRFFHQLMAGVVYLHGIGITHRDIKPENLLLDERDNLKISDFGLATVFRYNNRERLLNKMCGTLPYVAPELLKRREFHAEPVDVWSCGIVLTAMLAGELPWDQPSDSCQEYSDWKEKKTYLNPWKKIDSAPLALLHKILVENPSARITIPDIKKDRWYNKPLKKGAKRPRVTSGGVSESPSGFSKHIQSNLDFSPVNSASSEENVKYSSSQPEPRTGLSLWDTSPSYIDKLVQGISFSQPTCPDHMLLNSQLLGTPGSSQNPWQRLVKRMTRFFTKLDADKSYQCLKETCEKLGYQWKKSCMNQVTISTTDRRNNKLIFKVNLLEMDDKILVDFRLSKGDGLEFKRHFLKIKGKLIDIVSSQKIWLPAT", "conditions": "read-out: residual kinase activity CHK1(h)", "method_in_brief": "as §1"}},
  "data": [
    {"smiles": "CONC(=O)c1ccccc1Nc1cc(Nc2cc(C)nn2C(C)C)ncc1Cl", "note": "[GSK2256098]", "values": [
      {"measurement": "remaining activity at 1 µM", "setting": "DCAMKL3(h)", "result": 98, "unit": "%"},
      {"measurement": "remaining activity at 1 µM", "setting": "Mer(h)", "result": 97, "unit": "%"},
      {"measurement": "remaining activity at 1 µM", "setting": "PI3 Kinase (p120g)(h)", "result": 101, "unit": "%"},
      {"measurement": "remaining activity at 1 µM", "setting": "BRK(h)", "result": 67, "unit": "%"},
      {"measurement": "remaining activity at 1 µM", "setting": "EGFR(T790M,L858R)(h)", "result": 88, "unit": "%"},
      {"measurement": "remaining activity at 1 µM", "setting": "CDK5/p35(h)", "result": 94, "unit": "%"},
      {"measurement": "remaining activity at 1 µM", "setting": "ATM(h)", "result": 94, "unit": "%"},
      {"measurement": "remaining activity at 1 µM", "setting": "B-Raf(h)", "result": 99, "unit": "%"},
      {"measurement": "remaining activity at 1 µM", "setting": "CHK1(h)", "result": 85, "unit": "%"}
    ]},
    {"smiles": "CNC(=O)c1ccc(Nc2ncc(C(F)(F)F)c(NCc3nccnc3N(C)S(C)(=O)=O)n2)cc1", "note": "[VS-6063, Defactinib]", "values": [
      {"measurement": "remaining activity at 1 µM", "setting": "DCAMKL3(h)", "result": 42, "unit": "%"},
      {"measurement": "remaining activity at 1 µM", "setting": "Mer(h)", "result": 7, "unit": "%"},
      {"measurement": "remaining activity at 1 µM", "setting": "PI3 Kinase (p120g)(h)", "result": 104, "unit": "%"},
      {"measurement": "remaining activity at 1 µM", "setting": "BRK(h)", "result": 91, "unit": "%"},
      {"measurement": "remaining activity at 1 µM", "setting": "EGFR(T790M,L858R)(h)", "result": 65, "unit": "%"},
      {"measurement": "remaining activity at 1 µM", "setting": "CDK5/p35(h)", "result": 10, "unit": "%"},
      {"measurement": "remaining activity at 1 µM", "setting": "ATM(h)", "result": 63, "unit": "%"},
      {"measurement": "remaining activity at 1 µM", "setting": "B-Raf(h)", "result": 83, "unit": "%"},
      {"measurement": "remaining activity at 1 µM", "setting": "CHK1(h)", "result": 58, "unit": "%"}
    ]},
    {"smiles": "CNC(=O)c1cccc(C)c1Nc1nc(Nc2ccc(N3CCN(C4C5CC6CC4CC(O)(C6)C5)CC3)cc2OC)ncc1C(F)(F)F", "note": "(stereo not drawn) [SJP1602, 2-((2-((4-(4-((2s,5r)-5-hydroxyadamantan-2-yl)piperazin-1-yl)-2-methoxyphenyl)amino)-5-(trifluoromethyl)pyrimidin-4-yl)amino)-N,3-dimethylbenzamide]", "values": [
      {"measurement": "remaining activity at 1 µM", "setting": "DCAMKL3(h)", "result": 98, "unit": "%"},
      {"measurement": "remaining activity at 1 µM", "setting": "Mer(h)", "result": 60, "unit": "%"},
      {"measurement": "remaining activity at 1 µM", "setting": "PI3 Kinase (p120g)(h)", "result": 85, "unit": "%"},
      {"measurement": "remaining activity at 1 µM", "setting": "BRK(h)", "result": 109, "unit": "%"},
      {"measurement": "remaining activity at 1 µM", "setting": "EGFR(T790M,L858R)(h)", "result": 88, "unit": "%"},
      {"measurement": "remaining activity at 1 µM", "setting": "CDK5/p35(h)", "result": 84, "unit": "%"},
      {"measurement": "remaining activity at 1 µM", "setting": "ATM(h)", "result": 98, "unit": "%"},
      {"measurement": "remaining activity at 1 µM", "setting": "B-Raf(h)", "result": 93, "unit": "%"},
      {"measurement": "remaining activity at 1 µM", "setting": "CHK1(h)", "result": 62, "unit": "%"}
    ]}
  ]
}
